# Laboratory results reported in ChEMBL document CHEMBL6177966, “Sclerotiorin-Type Azaphilones Isolated from a Marine-Derived Fungus Microsphaeropsis arundinis P1B” (J Nat Prod, 2025).
# pIC50: −log10 of the molar value. Active and inactive are the calls of the source. The rule behind the calls is not given here.
# How the values were obtained:
# RAW264.7 [1] = experiment: Cytotoxicity against mouse RAW264.7 cells assessed as cell viability at 20 to 40 uM incubated for 24 hrs by CCK8 assay; type: toxicity, cell-based; conditions: raw264.7, 24 h, dose 20-40 µM
# RAW264.7 [2] = experiment: Anti-inflammatory activity in LPS-induced mouse RAW264.7 cells assessed as inhibition of NO production incubated for 24 hrs by Griess reagent based microplate reader analysis; type: functional, cell-based; conditions: RAW264.7, 24 h
# RAW264.7 [3] = experiment: Anti-inflammatory activity in LPS-induced mouse RAW264.7 cells assessed as reduction in iNOS level pre-incubated with compound for 1 hr followed by LPS induction and measured after 6 hrs by Western blot analysis; type: functional, cell-based; conditions: dose 5-40 µM
# RAW264.7 [4] = experiment: Anti-inflammatory activity in LPS-induced mouse RAW264.7 cells assessed as reduction in COX-2 level pre-incubated with compound for 1 hr followed by LPS induction and measured after 6 hrs by Western blot analysis; type: functional, cell-based; conditions: dose 5-40 µM
# RAW264.7 [5] = experiment: Anti-inflammatory activity in LPS-induced mouse RAW264.7 cells assessed as downregulation of iNOS mRNA transcription at 10 to 40 uM pre-incubated with compound for 1 hr followed by LPS induction and measured after 6 hrs by qRT-PCR analysis; type: functional, cell-based; conditions: dose 10-40 µM
# RAW264.7 [6] = experiment: Anti-inflammatory activity in LPS-induced mouse RAW264.7 cells assessed as downregulation of TNF-alpha mRNA transcription at 10 to 40 uM pre-incubated with compound for 1 hr followed by LPS induction and measured after 6 hrs by qRT-PCR analysis; type: functional, cell-based; conditions: dose 10-40 µM
# RAW264.7 [7] = experiment: Anti-inflammatory activity in LPS-induced mouse RAW264.7 cells assessed as downregulation of IL-6 mRNA transcription at 10 to 40 uM pre-incubated with compound for 1 hr followed by LPS induction and measured after 6 hrs by qRT-PCR analysis; type: functional, cell-based; conditions: dose 10-40 µM
# RAW264.7 [8] = experiment: Inhibition of MAPK signalling pathway in LPS-induced mouse RAW264.7 cells assessed as downregulation of ERK1/2 phosphorylation pre-incubated with compound for 1 hr followed by LPS induction and measured after 10 mins by Western blot analysis; type: cell-based; conditions: dose 5-40 µM
# RAW264.7 [9] = experiment: Effect on P38 phosphorylation in LPS-induced mouse RAW264.7 cells at 5 to 40 uM pre-incubated with compound for 1 hr followed by LPS induction and measured after 10 mins by Western blot analysis; type: functional, cell-based; conditions: dose 5-40 µM
# RAW264.7 [10] = experiment: Effect on JNK phosphorylation in LPS-induced mouse RAW264.7 cells at 5 to 40 uM pre-incubated with compound for 1 hr followed by LPS induction and measured after 10 mins by Western blot analysis; type: functional, cell-based; conditions: dose 5-40 µM
# RAW264.7 [11] = experiment: Anti-inflammatory activity in LPS-induced mouse RAW264.7 cells assessed as inhibition of NO production; type: functional, cell-based
SMILES,Activity (RAW264.7 [1]),other results
C[C@H]1CCO[C@@H]1[C@](C)(O)/C=C/C1=CC2=CC(=O)[C@](C)(O)[C@@H](O)[C@@H]2CO1,Non-toxic,–
C[C@H]1CCO[C@@H]1[C@](C)(O)/C=C/C1=CC2=CC(=O)[C@](C)(O)[C@@H](O)[C@]2(O)CO1,Non-toxic,–
C[C@H]1CC(=O)O[C@@H]1[C@](C)(O)/C=C/C1=CC2=C(Cl)C(=O)[C@](C)(O)[C@H](O)[C@@H]2CO1,Non-toxic,–
C[C@H]1CC(=O)O[C@@H]1[C@@](C)(O)/C=C/C1=CC2=CC(=O)[C@](C)(O)[C@@H](O)C2=CO1,Non-toxic,–
C[C@H]1CC(=O)O[C@@H]1[C@@](C)(O)/C=C/C1=CC2=CC(=O)[C@](C)(O)[C@@H](O)[C@H]2CO1,Non-toxic,–
C[C@H]1CCO[C@@H]1[C@@](C)(O)/C=C/C1=CC2=CC(=O)[C@](C)(O)[C@@H](O)[C@@H]2CO1,Non-toxic,–
C[C@H]1CC(=O)O[C@@H]1[C@](C)(O)/C=C/C1=CC2=CC(=O)[C@](C)(O)[C@@H](O)[C@H]2CO1,Non-toxic,–
C[C@H]1CC(=O)O[C@@H]1[C@@](C)(O)/C=C/C1=CC2=C(Cl)C(=O)[C@](C)(O)[C@H](O)[C@@H]2CO1,Non-toxic,–
C[C@H]1CC(=O)O[C@@H]1[C@](C)(O)/C=C/C1=CC2=CC(=O)[C@](C)(O)[C@@H](O)[C@@H]2CO1,Non-toxic,pIC50 (RAW264.7 [2]): 4.78; Activity (RAW264.7 [3]): Dose-dependent-effect; Activity (RAW264.7 [4]): Dose-dependent-effect; Activity (RAW264.7 [5]): Active; Activity (RAW264.7 [6]): Active; Activity (RAW264.7 [7]): Active; inhibition (RAW264.7 [8]): Dose-dependent-effect; Activity (RAW264.7 [9]): inactive; Activity (RAW264.7 [10]): inactive
C[C@H]1CC(=O)O[C@@H]1[C@@](C)(O)/C=C/C1=CC2=CC(=O)[C@](C)(O)[C@@H](O)[C@@H]2CO1,Non-toxic,–
O=c1c(O)c(-c2ccc(O)c(O)c2)oc2cc(O)cc(O)c12 [QUERCETIN],–,pIC50 (RAW264.7 [11]): 4.81
C[C@H]1CCO[C@@H]1[C@@](C)(O)/C=C/C1=CC2=CC(=O)[C@](C)(O)[C@@H](O)[C@]2(O)CO1,Non-toxic,–
C[C@H]1CC(=O)O[C@@H]1[C@](C)(O)/C=C/C1=CC2=CC(=O)[C@](C)(O)[C@@H](O)C2=CO1,Non-toxic,–
